EP4603105A1, “PHARMACEUTICAL COMPOSITION CONTAINING CYCLIC COMPOUND HAVING SELECTIVE KRAS INHIBITORY EFFECT AGAINST HRAS AND NRAS” (CHUGAI SEIYAKU KABUSHIKI KAISHA, priority 2022, dated 2024)
pIC50: −log10 of the molar value. Where a SMILES comes first, the peptide text is derived from it. Bridges are numbered along the chain shown (N, C = ends). [ ]: non-standard residue; d: D form. The star is where a group is joined. hPhe(3,5-F2-4-CF3) = N[C@@H](CCc1cc(F)c(C(F)(F)F)c(F)c1)C(=O)O; hPhe(3-Cl-4-CF3) = N[C@@H](CCc1ccc(C(F)(F)F)c(Cl)c1)C(=O)O; NPrPhe(4-CF3) = CCCN[C@@H](Cc1ccc(C(F)(F)F)cc1)C(=O)O; hPhe(3,4-Cl2) = N[C@@H](CCc1ccc(Cl)c(Cl)c1)C(=O)O; NMeGly(cPent) = CN[C@H](C(=O)O)C1CCCC1; Hyp = O=C(O)[C@@H]1C[C@@H](O)CN1; αMeF = C[C@](N)(Cc1ccccc1)C(=O)O; NMeD = CN[C@@H](CC(=O)O)C(=O)O; NMeL = CN[C@@H](CC(C)C)C(=O)O; Iva = CC[C@](C)(N)C(=O)O; Morpholide = C1CN(*)CCO1; NMeA = CN[C@@H](C)C(=O)O; Ac5c = NC1(C(=O)O)CCCC1; Aze = O=C(O)[C@@H]1CCN1; Ac4c = NC1(C(=O)O)CCC1; Sar = CNCC(=O)O

What was measured:
[1] = molecular target: GDP-bound NRAS wild-type protein (Homo sapiens, UniProt P01111); test: Binding to NRAS by surface plasmon resonance (SPR), KD and KD ratio to KRAS
Outline: (§1)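 Each cycle, GDP-bound biotin-Avi RAS was captured (~100–300 RU), compound concentrations were injected low to high for 75 s each at 100 µL/min, then the chip was regenerated. Buffer: HBS pH 7.4, 10 mM MgCl2, 10 µM GDP, 1 mM DTT, 4% DMSO; 30°C. KD from a 1:1 binding model.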

HRAS wild-type protein = HRAS wild-type protein (Homo sapiens, UniProt P01112); test: Binding to HRAS by surface plasmon resonance (SPR), KD and KD ratio to KRAS
Outline: as §1

[2] = tested on: human lung cancer strain NCI-H441; type: cell-based
Outline: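 Signal came from […] measured per well once the reagent was added. Beforehand, cells were cultured at 37°C and 5% carbon dioxide on a compound series serially diluted in dimethyl sulfoxide.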

[3] = ratio of the KD value with respect to GDP-bound NRAS wild-type protein to the KD value with respect to KRAS
[4] = ratio of the KD value with respect to HRAS wild-type protein to the KD value with respect to KRAS
[5] = ratio of KD for GDP-bound NRAS wild-type protein to KD for KRAS
[6] = ratio of KD for HRAS wild-type protein to KD for KRAS

Sequence of GDP-bound NRAS wild-type protein (P01111 whole entry): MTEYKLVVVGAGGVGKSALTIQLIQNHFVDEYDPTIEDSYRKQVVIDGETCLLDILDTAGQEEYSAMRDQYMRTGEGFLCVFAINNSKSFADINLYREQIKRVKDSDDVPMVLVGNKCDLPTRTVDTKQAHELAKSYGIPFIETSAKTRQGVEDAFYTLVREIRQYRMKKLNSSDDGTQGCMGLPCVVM
Sequence of HRAS wild-type protein (P01112 whole entry): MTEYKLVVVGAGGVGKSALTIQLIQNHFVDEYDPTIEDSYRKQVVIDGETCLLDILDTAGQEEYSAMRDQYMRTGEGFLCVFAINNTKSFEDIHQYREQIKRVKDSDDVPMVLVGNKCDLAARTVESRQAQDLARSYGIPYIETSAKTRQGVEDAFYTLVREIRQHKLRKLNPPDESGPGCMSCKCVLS

| SMILES | NRAS /KRAS [1, 3] | HRAS /KRAS (HRAS wild-type protein; [4]) | pIC50 [2] | NRAS /KRAS [1, 5] | HRAS /KRAS (HRAS wild-type protein; [6]) | NRAS /KRAS ([1]; ratio of KD value for GDP-bound NRAS wild-type protein to KD value for KRAS (SPR)) | HRAS /KRAS (HRAS wild-type protein; ratio of KD value for HRAS wild-type protein to KD value for KRAS (SPR)) |
| --- | --- | --- | --- | --- | --- | --- | --- |
| CC[C@H](C)[C@@H]1NC(=O)[C@H](CC(C)C)N(C)C(=O)C[C@@H](C(=O)N2CCOCC2)N(C)C(=O)[C@H](CC(F)(F)F)N(C)C(=O)C2(CCCC2)NC(=O)[C@@H]2CCCN2C(=O)[C@H](CCc2cc(F)c(C(F)(F)F)c(F)c2)NC(=O)CN(C)C(=O)[C@H](Cc2ccc(C(F)(F)F)cc2)N2CCCC[C@@H](C2=O)N(C)C(=O)CN(C)C1=O [PP0568] | B (a compound having 3 or more and less than 10 is denoted as B) | B (a compound having 3 or more and less than 10 is denoted as B) | 7.10 | – | – | – | – |
| CCCN1C(=O)CN(C)C(=O)CNC(=O)[C@H]([C@@H](C)CC)NC(=O)[C@H](CC(C)C)N(C)C(=O)C[C@@H](C(=O)N2CCOCC2)NC(=O)[C@H](C2CCCC2)N(C)C(=O)C2(CCCC2)NC(=O)[C@@H]2C[C@@H](OCC)CN2C(=O)[C@H](CCc2ccc(C(F)(F)F)c(Cl)c2)NC(=O)CN(C)C(=O)[C@@H]1Cc1ccc(C(F)(F)F)cc1 [PP0329] ([NMeL]IG[Sar][NPrPhe(4-CF3)][Sar][hPhe(3-Cl-4-CF3)][Hyp](Et)[Ac5c][NMeGly(cPent)]D-Morpholide; lactam N-11) | – | – | 7.18 | B (a compound having 3 or more and less than 10 is denoted as B) | C (A compound having a KD ratio of 0.1 or more and less than 3 is denoted as C) | – | – |
| CCO[C@@H]1C[C@H]2C(=O)NC3(CC(C)(C)C3)C(=O)N(C)[C@@H](C3CCCC3)C(=O)N(C)[C@H](C(=O)N(C)C)CC(=O)N(C)[C@@H](CC)C(=O)N[C@@H]([C@@H](C)CC)C(=O)N(C)CC(=O)N(C)[C@H]3C/C=C\CCN(C3=O)[C@@H](Cc3ccc(C)cc3)C(=O)N(C)CC(=O)N[C@@H](CCc3ccc(C(F)(F)F)c(OC)c3)C(=O)N2C1 [PP1873] | – | – | 8.07 | – | – | A (a compound having 10 or more and less than 20 is denoted as A) | B (a compound having 3 or more and less than 10 is denoted as B) |
| CCCN1C(=O)[C@@H]2CCN2C(=O)[C@H](C)N(C)C(=O)[C@H]([C@@H](C)CC)NC(=O)[C@H](CC(C)C)N(C)C(=O)C[C@@H](C(=O)N2CCOCC2)N(C)C(=O)[C@H](C2CCCC2)N(C)C(=O)C2(CCCC2)NC(=O)[C@@H]2CCCN2C(=O)[C@H](CCc2ccc(Cl)c(Cl)c2)NC(=O)CN(C)C(=O)[C@@H]1Cc1ccc(C(F)(F)F)cc1 [PP0227] ([NMeL]I[NMeA][Aze][NPrPhe(4-CF3)][Sar][hPhe(3,4-Cl2)]P[Ac5c][NMeGly(cPent)][NMeD]-Morpholide; lactam N-11) | – | – | 8.39 | C (A compound having a KD ratio of 0.1 or more and less than 3 is denoted as C) | B (a compound having 3 or more and less than 10 is denoted as B) | – | – |
| CCC[C@H]1C(=O)N[C@@H]([C@@H](C)CC)C(=O)N(C2CC2)CC(=O)N(C)[C@H]2C/C=C\CCN(C2=O)[C@@H](Cc2ccc(C(F)(F)F)cc2)C(=O)N(C)CC(=O)N[C@@H](CCc2ccc(Cl)c(Cl)c2)C(=O)N2C[C@H](OCC)C[C@H]2C(=O)NC2(CC(C)(C)C2)C(=O)N(C)[C@@H](CC2CCC2)C(=O)N(C)[C@H](C(=O)N(C)C)CC(=O)N1C [PP2819] | – | – | 6.99 | A (a compound having 10 or more and less than 20 is denoted as A) | A (a compound having 10 or more and less than 20 is denoted as A) | – | – |
| CCCN1C(=O)CN(C)C(=O)[C@@H]2CCN2C(=O)[C@H]([C@@H](C)CC)NC(=O)[C@H](CC(C)C)N(C)C(=O)C[C@@H](C(=O)N(C)C)NC(=O)[C@H](C2CCCC2)N(C)C(=O)C2(CCCC2)NC(=O)[C@@H]2C[C@@H](OCC)CN2C(=O)[C@H](CCc2ccc(C(F)(F)F)c(Cl)c2)NC(=O)CN(C)C(=O)[C@@H]1Cc1ccc(C(F)(F)F)cc1 [PP0377] ([NMeL]I[Aze][Sar][NPrPhe(4-CF3)][Sar][hPhe(3-Cl-4-CF3)][Hyp](Et)[Ac5c][NMeGly(cPent)]D-NMe2; lactam N-11) | – | – | 7.48 | B (a compound having 3 or more and less than 10 is denoted as B) | C (A compound having a KD ratio of 0.1 or more and less than 3 is denoted as C) | – | – |
| CCCN1C(=O)CN(C)C(=O)CN(C)C(=O)[C@H]([C@@H](C)CC)NC(=O)[C@H](CC(C)C)N(C)C(=O)C[C@@H](C(=O)N(C)C)N(C)C(=O)[C@H](C2CCCC2)N(C)C(=O)[C@](C)(Cc2ccccc2)NC(=O)[C@@H]2CCCN2C(=O)[C@H](CCc2cc(F)c(C(F)(F)F)c(F)c2)NC(=O)CN(C)C(=O)[C@@H]1Cc1ccc(C(F)(F)F)cc1 [PP0740] ([NMeL]I[Sar][Sar][NPrPhe(4-CF3)][Sar][hPhe(3,5-F2-4-CF3)]P[αMeF][NMeGly(cPent)][NMeD]-NMe2; lactam N-11) | B (a compound having 3 or more and less than 10 is denoted as B) | C (A compound having a KD ratio of 0.1 or more and less than 3 is denoted as C) | 7.29 | – | – | – | – |
| CCCN1C(=O)[C@@H]2CCN2C(=O)CN(C)C(=O)[C@H]([C@@H](C)CC)NC(=O)[C@H](CC(C)C)N(C)C(=O)C[C@@H](C(=O)N2CCOCC2)NC(=O)[C@H](C2CCCC2)N(C)C(=O)C2(CCC2)NC(=O)[C@@H]2C[C@@H](OCC)CN2C(=O)[C@H](CCc2ccc(C(F)(F)F)c(Cl)c2)NC(=O)CN(C)C(=O)[C@@H]1Cc1ccc(C(F)(F)F)cc1 [PP0354] ([NMeL]I[Sar][Aze][NPrPhe(4-CF3)][Sar][hPhe(3-Cl-4-CF3)][Hyp](Et)[Ac4c][NMeGly(cPent)]D-Morpholide; lactam N-11) | – | – | 7.61 | C (A compound having a KD ratio of 0.1 or more and less than 3 is denoted as C) | B (a compound having 3 or more and less than 10 is denoted as B) | – | – |
| CCC[C@H]1C(=O)N[C@@H]([C@@H](C)CC)C(=O)N(C)CC(=O)N(C)[C@H]2C/C=C\CCN(C2=O)[C@@H](Cc2ccc(C)cc2)C(=O)N(C)CC(=O)N[C@@H](CCc2ccc(C(F)(F)F)c(Cl)c2)C(=O)N2C[C@H](OCC)C[C@H]2C(=O)NC2(CC(C)(C)C2)C(=O)N(C)[C@@H](CC(C)C)C(=O)N(C)[C@H](C(=O)N(C)C)CC(=O)N1C [PP2224] | A (a compound having 10 or more and less than 20 is denoted as A) | A (a compound having 10 or more and less than 20 is denoted as A) | 7.81 | – | – | – | – |
| CCCN1C(=O)[C@@H]2CCN2C(=O)CN(C)C(=O)[C@H]([C@@H](C)CC)NC(=O)[C@H](CC(C)C)N(C)C(=O)C[C@@H](C(=O)N2CCOCC2)N(C)C(=O)[C@H](C2CCCC2)N(C)C(=O)[C@](C)(CC)NC(=O)[C@@H]2CCCN2C(=O)[C@H](CCc2cc(F)c(C(F)(F)F)c(F)c2)NC(=O)CN(C)C(=O)[C@@H]1Cc1ccc(C(F)(F)F)cc1 [PP0790] ([NMeL]I[Sar][Aze][NPrPhe(4-CF3)][Sar][hPhe(3,5-F2-4-CF3)]P[Iva][NMeGly(cPent)][NMeD]-Morpholide; lactam N-11) | – | – | 7.54 | C (A compound having a KD ratio of 0.1 or more and less than 3 is denoted as C) | B (a compound having 3 or more and less than 10 is denoted as B) | – | – |
| CC[C@H](C)[C@@H]1NC(=O)[C@H](CC(C)C)N(CC)C(=O)C[C@@H](C(=O)N2CCOCC2)N(C)C(=O)[C@H](C2CCCC2)N(C)C(=O)C2(CCCC2)NC(=O)[C@@H]2CCCN2C(=O)[C@H](CCc2cc(F)c(C(F)(F)F)c(F)c2)NC(=O)CN(C)C(=O)[C@H](Cc2ccc(C(F)(F)F)cc2)N2CCCC[C@@H](C2=O)N(C)C(=O)CN(C)C1=O [PP0588] | B (a compound having 3 or more and less than 10 is denoted as B) | B (a compound having 3 or more and less than 10 is denoted as B) | 7.78 | – | – | – | – |
